The source of these data is patent publication US5334703A, “Chromogenic substrate” (Chromonogenix AB, priority 1989, dated 1994).

Counter-ions that a name gives are not always drawn. Peptide text beside a SMILES is read from it. * marks the point of attachment. pNA = O=[N+]([O-])c1ccc(N*)cc1

The subject of this assay is activated LAL (Limulus Amebocyte Lysate). Description: Single-stage chromogenic LAL-test (hydrolysis of the chromogenic substrate by endotoxin-activated LAL, pNA read at 405 nm). It is filed as biochemical, Limulus Potyphemus. Particulars: substrate concentration 2.2 mM in the reaction solution; endotoxin 0.1-1.2 EU/ml; Tris buffer pH 7.9; 37° C., 15 min; absorbance 405 nm. As to the method:
A series of endotoxin containing solutions, making up a standard curve in the range 0.1-1.2 EU/ml, were assayed as described below using the different chromogenic substrates. The slopes of the resulting standard curves were compared and the slope for the substrate S-2423 was considered to be 100%.
A reagent (100 μl) consisting of a mixture of LAL (50% of the clotting concentration) and the chromogenic substrate (4.4 mM) in a Tris buffer of pH 7.9 is added to an equal volume of the sample. The resulting reaction (activation of the LAL and the subsequent hydrolyses of the chromogenic substrate)is carried out at 37° C. After 15 min. the reaction is terminated by the addition of 400 μl of acetic acid and the absorbance is read at 405 nm.
Substrate S-2423 (Ac-Ile-Glu-Gly-Arg-pNA.HCl) is taken as standard.
Turning to `CC[C@H](C)[C@H](NC(C)=O)C(=O)N[C@@H](CCC(=O)O)C(=O)NCC(=O)N[C@@H](CCCNC(=N)N)C(=O)Nc1ccc([N+](=O)[O-])cc1` [Substrate S-2423, Ac--Ile--Glu--Gly--Arg--pNA.HCl, reference compound] (Ac-IEGR-pNA), the “Relative activity (slope of endotoxin standard curve, S-2423 = 100%)” value is 100%.
Consider `CC[C@H](C)[C@H](NC(C)=O)C(=O)N[C@@H](CCC(=O)O)C(=O)NCC(=O)N[C@@H](CCCCN)C(=O)Nc1ccc([N+](=O)[O-])cc1` [Substrate S-2834, Ac--Ile--Glu--Gly--Lys--pNA.HCl] (Ac-IEGK-pNA), for which the “Relative activity (slope of endotoxin standard curve, S-2423 = 100%)” value is listed as 126%.
To `CC[C@H](C)[C@H](NC(C)=O)C(=O)N[C@@H](CO)C(=O)NCC(=O)N[C@@H](CCCCN)C(=O)Nc1ccc([N+](=O)[O-])cc1` [Substrate S-2854, Ac--Ile--Ser--Gly--Lys--pNA.HCl] (Ac-ISGK-pNA) belongs 131%.
Consider `CC[C@H](C)[C@H](NC(C)=O)C(=O)N[C@@H](CCC(=O)O)C(=O)OCC(=O)N[C@@H](CCCNC(=N)N)C(=O)Nc1ccc([N+](=O)[O-])cc1` [Substrate S-2860, Ac--Ile--Glu-Glycolyl-Arg--pNA.HCl], for which the “Relative activity (slope of endotoxin standard curve, S-2423 = 100%)” value is listed as 142%.
